The target in test [1] is T1, Focal Adhesion Kinase (full-length Flag-tagged human FAK) (Homo sapiens, UniProt Q05397).
T1 construct: a purified recombinant full-length Flag-tagged human FAK protein; Flag; made in house; host or cells: baculovirus infected insect cells
As to the kind of experiment: in vitro FAK ELISA kinase assay. Conditions: compound 10 uM; ATP 2 uM; read-out: FAK % Inhib ave: 10 uM. The test is classed as biochemical. In short, it runs like this:
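Plate-coated GST fusion of the 73-residue region around Tyr397 phosphorylated by full-length Flag-tagged human FAK from baculovirus-infected insect cells, with 2 μM ATP in Mg/Mn HEPES pH 7.5, 1 h at 30 °C. Phosphotyrosine detected by HRP-anti-pTyr ELISA with TMB read-out. Compounds screened at 10 μM or titrated from 50 μM in half-log steps for IC50, BSA-substrate background subtracted.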
Background: ELISA stands for enzyme-linked immunosorbent assay.

Test [2] addresses T2, CAK complex (human Cdk7, human Cyclin H, MAT-1) (Homo sapiens, UniProt P50613).
T2 construct: made in house; host or cells: SF-900 insect cells co-infected with Flag-Cdk7 and Bab-Cyclin H baculoviruses
Nature of the test: in vitro time-resolved-fluorescence assay for the CAK kinase activity. Particulars: compound 20 uM; read-out: CAK % inhib; 20 uM. It is filed as biochemical. In short, it runs like this:
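Kinase activity of the human CAK complex (Flag-tagged Cdk7, Cyclin H, MAT-1), purified from co-infected SF-900 insect cells by Flag-M2 immunoaffinity, was measured by time-resolved fluorescence. In black glutathione-coated 96-well plates, 500 ng GST-CTD substrate with 22 uM ATP was mixed with compound in 30% DMSO/25 mM Hepes and 250 ng CAK. Plates were incubated 20 minutes at 30° C, then stopped with EDTA, bound overnight and washed. A Europium-labeled antibody detected serine-phosphorylated CTD.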

Among the data in patent US7563781B2, “Triazolopyrimidine derivatives” (Janssen Pharmaceutica NV, priority 2006, dated 2009) are inhibition values, retold here.

T1 sequence (Q05397 whole entry): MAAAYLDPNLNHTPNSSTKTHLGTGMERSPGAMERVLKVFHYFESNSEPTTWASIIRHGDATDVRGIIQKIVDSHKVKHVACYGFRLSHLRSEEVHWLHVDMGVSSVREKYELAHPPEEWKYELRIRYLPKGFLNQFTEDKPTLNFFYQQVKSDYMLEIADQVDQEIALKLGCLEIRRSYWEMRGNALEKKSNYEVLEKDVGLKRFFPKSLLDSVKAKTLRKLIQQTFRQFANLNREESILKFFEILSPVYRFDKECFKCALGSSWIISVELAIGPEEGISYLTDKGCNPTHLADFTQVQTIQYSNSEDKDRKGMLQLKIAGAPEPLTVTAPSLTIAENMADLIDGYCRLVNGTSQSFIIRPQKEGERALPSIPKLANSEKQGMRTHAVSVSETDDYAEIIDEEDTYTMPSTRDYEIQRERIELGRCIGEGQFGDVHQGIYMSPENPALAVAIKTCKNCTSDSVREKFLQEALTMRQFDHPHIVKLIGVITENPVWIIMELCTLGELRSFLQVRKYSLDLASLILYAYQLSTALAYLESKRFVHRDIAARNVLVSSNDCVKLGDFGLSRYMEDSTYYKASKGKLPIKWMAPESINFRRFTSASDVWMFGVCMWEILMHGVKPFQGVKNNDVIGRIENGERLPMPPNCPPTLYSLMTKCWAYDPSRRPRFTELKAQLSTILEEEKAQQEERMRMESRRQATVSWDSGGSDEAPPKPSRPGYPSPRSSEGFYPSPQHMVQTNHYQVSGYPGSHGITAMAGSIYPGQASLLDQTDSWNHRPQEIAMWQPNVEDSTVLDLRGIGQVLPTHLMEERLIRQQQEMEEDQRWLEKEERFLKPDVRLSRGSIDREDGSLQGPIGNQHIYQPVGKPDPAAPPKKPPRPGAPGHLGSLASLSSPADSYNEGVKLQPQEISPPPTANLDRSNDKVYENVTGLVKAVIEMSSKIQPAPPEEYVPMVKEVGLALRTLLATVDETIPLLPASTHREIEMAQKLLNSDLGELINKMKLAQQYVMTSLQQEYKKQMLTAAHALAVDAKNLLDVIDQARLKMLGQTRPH
T2 sequence (P50613 with tags, fused parts or gaps): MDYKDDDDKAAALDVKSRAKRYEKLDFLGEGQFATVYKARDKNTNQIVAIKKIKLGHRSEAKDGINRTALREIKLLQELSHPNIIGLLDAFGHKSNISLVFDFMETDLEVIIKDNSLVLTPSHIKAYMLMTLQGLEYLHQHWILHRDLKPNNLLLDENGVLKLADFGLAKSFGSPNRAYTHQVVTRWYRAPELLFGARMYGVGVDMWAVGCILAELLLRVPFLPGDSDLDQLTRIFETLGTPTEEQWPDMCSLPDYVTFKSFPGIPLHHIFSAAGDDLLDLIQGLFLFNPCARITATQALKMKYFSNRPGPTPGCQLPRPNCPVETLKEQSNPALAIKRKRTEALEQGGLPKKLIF
T2 sequence (as listed by the source partner): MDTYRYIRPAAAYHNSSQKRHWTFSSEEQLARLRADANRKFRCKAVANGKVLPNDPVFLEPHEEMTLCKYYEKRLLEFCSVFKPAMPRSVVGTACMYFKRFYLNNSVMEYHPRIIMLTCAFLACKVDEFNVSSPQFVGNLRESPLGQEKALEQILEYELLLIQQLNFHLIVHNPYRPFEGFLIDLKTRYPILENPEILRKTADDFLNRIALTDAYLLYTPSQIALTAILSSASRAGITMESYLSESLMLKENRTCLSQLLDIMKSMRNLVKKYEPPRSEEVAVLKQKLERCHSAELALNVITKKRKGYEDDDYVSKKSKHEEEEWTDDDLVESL

Turning to `CCN(CC)CCNC(=O)c1ccc(-n2nnc3cnc(Nc4ccc(N5CCN(Cc6ccccc6)CC5)cc4)nc32)cc1` [Compound 53, 4-{5-[4-(4-Benzyl-piperazin-1-yl)-phenylamino]-[1,2,3]triazolo[4,5-d]pyrimidin-3-yl}-N-(2-diethylamino-ethyl)-benzamide], in test [1], the inhibition at 10 µM stood at 60.5%. Besides, in test [2], the inhibition at 20 µM stood at 43.7%.
For `CCCCNS(=O)(=O)c1cccc(Nc2ncc3nnn(-c4ccc(N5CCN(Cc6ccccc6)CC5)cc4)c3n2)c1` [Compound 54, 3-{3-[4-(4-Benzyl-piperazin-1-yl)-phenyl]-3H-[1,2,3]triazolo[4,5-d]pyrimidin-5-ylamino}-N-butyl-benzene-sulfonamide] the same measures were 15.2% and 20.5%.
As to `CN(C1CCCCC1)S(=O)(=O)c1ccccc1Nc1ncc2nnn(-c3ccc(N4CCN(Cc5ccccc5)CC4)cc3)c2n1` [Compound 55, 2-{3-[4-(4-Benzyl-piperazin-1-yl)-phenyl]-3H-[1,2,3]triazolo[4,5-d]pyrimidin-5-ylamino}-N-cyclohexyl-N-methyl-benzene-sulfonamide], in test [1], the inhibition at 10 µM is 10.8%. For the same molecule, in test [2], the inhibition at 20 µM was -6.2%.
Take `CCN(CC)CCNC(=O)c1ccc(Nc2ncc3nnn(-c4ccc(N5CCN(Cc6ccccc6)CC5)cc4)c3n2)cc1` [Compound 56, 4-{3-[4-(4-Benzyl-piperazin-1-yl)-phenyl]-3H-[1,2,3]triazolo[4,5-d]pyrimidin-5-ylamino}-N-(2-diethylamino-ethyl)-benzamide]: the inhibition at 10 µM in test [1] turned out to be 75.5%. Moreover, the inhibition at 20 µM in test [2] turned out to be 87.3%.
For `CCCCNS(=O)(=O)c1cccc(Nc2ncc3nnn(Cc4ccccc4)c3n2)c1` [Compound 57] the same measures were 22% and 34.1%.
The matching figures for `CCN(CC)CCNC(=O)c1ccc(Nc2ncc3nnn(Cc4ccccc4)c3n2)cc1` [Compound 58, 4-(3-Benzyl-3H-[1,2,3]triazolo[4,5-d]pyrimidin-5-ylamino)-N-(2-diethylamino-ethyl)-benzamide]: 59% and 58%.
The matching figures for `c1ccc(CN2CCN(c3ccc(Nc4ncc5nnn(Cc6ccccc6)c5n4)cc3)CC2)cc1` [Compound 59, [4-(4-Benzyl-piperazin-1-yl)-phenyl]-(3-benzyl-3H-[1,2,3]triazolo[4,5-d]pyrimidin-5-yl)-amine]: 25% and 47%.
Regarding `c1cc(Nc2ncc3nnn(C4CCc5ccccc54)c3n2)cc(-c2nnn[nH]2)c1` (stereo not shown) [Compound 60, (3-Indan-1-yl-3H-[1,2,3]triazolo[4,5-d]pyrimidin-5-yl)-[3-(1H-tetrazol-5-yl)-phenyl]-amine], the inhibition at 10 µM in test [1] was 26.8%. The inhibition at 20 µM in test [2] was -0.99%.
For `CCN(CC)CCNC(=O)c1ccc(Nc2ncc3nnn(C4CCc5ccccc54)c3n2)cc1` (stereo not shown) [Compound 61, N-(2-Diethylamino-ethyl)-4-(3-indan-1-yl-3H-[1,2,3]triazolo[4,5-d]pyrimidin-5-ylamino)-benzamide] the same measures were 85.5% and 79.4%.
On to `CCN(CC)CCNC(=O)c1ccc(Nc2ncc3nnn(-c4cccc(-c5nnn[nH]5)c4)c3n2)cc1` [Compound 62, N-(2-Diethylamino-ethyl)-4-{3-[3-(1H-tetrazol-5-yl)-phenyl]-3H-[1,2,3]triazolo[4,5-d]pyrimidin-5-ylamino}-benzamide], for which the inhibition at 10 µM in test [1] came to 66.7%. Moreover, the inhibition at 20 µM in test [2] came out at 45.3%.
For `CCOC(=O)N1CCC(n2nnc3cnc(Nc4cccc(-c5nnn[nH]5)c4)nc32)CC1` [Compound 63, 4-{5-[3-(1H-Tetrazol-5-yl)-phenylamino]-[1,2,3]triazolo[4,5-d]pyrimidin-3-yl}-piperidine-1-carboxylic acid ethyl ester] the same measures were 59.8% and 39.3%.
